Data published in patent US6737383B1, “Herbicidal oxadiazolidines” (priority 1999, dated 2004).

How the values were obtained:
barnyardgrass = assay: Test A barnyardgrass; assay type: in vivo, Echinochloa crus-galli; conditions: 0 to 10 scale where 0 is no effect and 10 is complete control
Method: Seeds of barnyardgrass (Echinochloa crus-galli), crabgrass (Digitaria spp.), morningglory (Ipomoea spp.), and velvetleaf (Abutilon theophrasti) were planted into a sandy loam soil and treated preemergence by soil drench with test chemicals formulated in a non-phytotoxic solvent mixture which includes a surfactant At the same time, these crop and weed species were also treated postemergence sprayed to runoff, with test chemicals formulated in the same manner.
Plants ranged in height from two to eighteen cm and were in the one to two leaf stage for the postemergence treatment. Treated plants and untreated controls were maintained in a greenhouse for approximately eleven days, after which all treated plants were compared to untreated controls and visually evaluated for injury. Plant response ratings, summarized in Table A, are based on a 0 to 10 scale where 0 is no effect and 10 is complete control.

fall panicum = assay: Test C postemergence fall panicum; assay type: in vivo, Panicum dichotomiflorum; conditions: 0 to 100 scale, 0 no effect, 100 complete control
In short: (§1)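 Activity is expressed as percent-style visual control, 0 (no effect) to 100 (complete control), assessed approximately 14 to 21 days after application, relative to untreated plants. Application was postemergence, using a non-phytotoxic solvent formulation with surfactant.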

lambsquarters = assay: Test C postemergence lambsquarters; assay type: in vivo, Chenopodium album; conditions: 0 to 100 scale, 0 no effect, 100 complete control
In short: as §1

sugar beet = assay: Test E sugar beet; assay type: in vivo, Beta vulgaris; conditions: Postemergence
Method: (§2) Compounds evaluated in this test were formulated in a non-phytotoxic solvent mixture which included a surfactant and applied to plants that were in the 1- to 4-leaf stage (postemergence application). A mixture of sandy loam soil and greenhouse potting mix in a 60:40 ratio was used for the postemergence test.
(§3) Plantings of these crops and weed species were adjusted to produce plants of appropriate size for the postemergence test. All plant species were grown using normal greenhouse practices. Crop and weed species include annual bluegrass (Poa annua), blackgrass (Alopecurus myosuroides), black nightshade (Solanum nigra), chickweed (Stellaria media), common poppy (Papaver rhoeas), deadnettle (Lamium amplexicaule), downy brome (Bromus tectorum), field violet (Viola arvensis), galium (Galium aparine), green foxtail (Setaria viridis), Italian ryegrass (Lolium multiflorum), jointed goatgrass (Aegilops cylindrica), kochia (Kochia scoparia), lambsquarters (Chenopodium album), littleseed canarygrass (Phalaris minor), rape (Brassica napus), redroot pigweed (Amaranthus retroflexus), Russian thistle (Salsola kali), scentless chamomile (Matricaria inodora), spring barley (Hordeum vulgare), sugar beet (Beta vulgaris), sunflower (Helianthus annuus), ivyleaf speedwell (Veronica hederaefolia), spring wheat (Triticum aestivum), winter wheat (Triticum aestivum), wild buckwheat (Polygonum convolvulus), wild mustard (Sinapis arvensis), wild oat (Avena fatua), windgrass (Apera spica-venti) and winter barley (Hordeum vulgare).
(§4) Treated plants and untreated controls were maintained in a greenhouse for approximately 21 to 28 days, after which all treated plants were compared to untreated controls and visually evaluated. […] A dash response (-) means no test result.

rape = assay: Test E rape; assay type: in vivo, Brassica napus; conditions: Preemergence
wild mustard = assay: Test E wild mustard; assay type: in vivo, Sinapis arvensis; conditions: Postemergence
Method: […] A mixture of sandy loam soil and greenhouse potting mix in a 60:40 ratio was used for the postemergence test.
as §3, §4

common poppy = assay: Test E common poppy; assay type: in vivo, Papaver rhoeas; conditions: Postemergence; for Plant response rating, Comnion poppy: Rate 125 g/ha
Method: as §2, §3, §4

sunflower = assay: Test E sunflower; assay type: in vivo, Helianthus annuus; conditions: Postemergence
Method: as §3, with “Plantings of these crops and weed species were adjusted to produce plants of appropriate size for the postemergence test.” left out
as §4

chickweed = assay: Test E chickweed; assay type: in vivo, Stellaria media; conditions: Postemergence
Method: as §2, §3, §4

downy brome = assay: Test E downy brome; assay type: in vivo, Bromus tectorum; conditions: Preemergence
pitted morningglory = assay: Test D pitted morningglory; assay type: in vivo, Ipomoea lacunosa; conditions: Postemergence, 0 to 100 scale
common ragweed = assay: Test D common ragweed; assay type: in vivo, Ambrosia elatior; conditions: Postemergence, 0 to 100 scale
itchgrass = assay: Test D itchgrass; assay type: in vivo, Rottboellia exaltata; conditions: Postemergence, 0 to 100 scale
tall mallow = assay: Test D tall mallow; assay type: in vivo, Malva sylvestris; conditions: Postemergence, 0 to 100 scale
Green foxtail = assay: Test D green foxtail; assay type: in vivo; conditions: Rate 250 g/ha; Postemergence; 0 to 100 scale
[1] = Rate 250 g/ha, 0 to 100 scale (0 no effect, 100 complete control)
[2] = Rate 62 g/ha, 0 to 100 scale, 0 no effect, 100 complete control
[3] = Rate 125 g/ha, 0 to 100 scale (0 no effect, 100 complete control)
[4] = Rate 64 g/ha, 0 no injury, 100 complete control
[5] = Rate 16 g/ha, 0 no injury, 100 complete control
[6] = Rate 32 g/ha, 0 no injury, 100 complete control
[7] = Rate 125 g/ha, 0 no injury, 100 complete control

## CCN(CC)C(=O)n1oc(=O)n(-c2ccc(OC)cc2)c1=O [Compound 1]
barnyardgrass; Postemergence, Rate 1000 g/ha
  Plant response rating, Barnyardgrass: 8
barnyardgrass; Pre-emergence, Rate 2000 g/ha
  Plant response rating, Barnyardgrass: 9

## Cc1ccccc1-n1c(=O)on(C(=O)N(C2=CCOCC2)C(C)C)c1=O [Compound 10]
barnyardgrass; Postemergence, Rate 1000 g/ha
  Plant response rating, Barnyardgrass: 9
barnyardgrass; Pre-emergence, Rate 2000 g/ha
  Plant response rating, Barnyardgrass: 10

## CC(C)Oc1cc(-n2c(=O)on(C(=O)N(c3ccc(F)cc3)C(C)C)c2=O)c(Cl)cc1Cl [Compound 43]
barnyardgrass; Postemergence, Rate 1000 g/ha
  Plant response rating, Barnyardgrass: 0
barnyardgrass; Pre-emergence, Rate 2000 g/ha
  Plant response rating, Barnyardgrass: 0

## CC(C)N(C(=O)n1oc(=O)n(Cc2cccs2)c1=O)c1ccc(F)cc1 [Compound 80]
Fall panicum; Rate 140 g/ha
  Plant response rating Fall panicum: 0
Fall panicum; Rate 280 g/ha
  Plant response rating Fall panicum: 0
Fall panicum; Rate 560 g/ha
  Plant response rating Fall panicum: 0
Fall panicum; Rate 1120 g/ha
  Plant response rating Fall panicum: 10
lambsquarters; Rate 140 g/ha
  Plant response rating, Lambsquarters: 0
lambsquarters; Rate 280 g/ha
  Plant response rating, Lambsquarters: 15
lambsquarters; Rate 560 g/ha
  Plant response rating, Lambsquarters: 20
lambsquarters; Rate 1120 g/ha
  Plant response rating, Lambsquarters: 20

## C=CCn1c(=O)on(C(=O)N(c2ccccc2)C(C)C)c1=O [Compound 93]
Sugar beet; Rate 62 g/ha, 0 to 100 scale
  Plant response rating, Sugar beet: 0
Sugar beet; Rate 125 g/ha, 0 to 100 scale
  Plant response rating, Sugar beet: 0
Sugar beet; [1]
  Plant response rating, Sugar beet: 0
Fall panicum; Rate 140 g/ha
  Plant response rating Fall panicum: 0
Fall panicum; Rate 280 g/ha
  Plant response rating Fall panicum: 80
Fall panicum; Rate 560 g/ha
  Plant response rating Fall panicum: 90
Fall panicum; Rate 1120 g/ha
  Plant response rating Fall panicum: 90
rape; [2]
  Plant response rating, Rape: 0
rape; [3]
  Plant response rating, Rape: 0
rape; Rate 250 g/ha, 0 to 100 scale
  Plant response rating, Rape: 10
Wild mustard; Rate 62 g/ha, 0 to 100 scale
  Plant response rating, Wild mustard: 0
Wild mustard; Rate 125 g/ha, 0 to 100 scale
  Plant response rating, Wild mustard: 0
Wild mustard; [1]
  Plant response rating, Wild mustard: 10
Common poppy; Rate 62 g/ha, 0 to 100 scale
  Plant response rating, Common poppy: 0
Common poppy; 0 to 100 scale
  Plant response rating, Comnion poppy: 0
Common poppy; [1]
  Plant response rating, Common poppy: 0
sunflower; Rate 62 g/ha, 0 to 100 scale
  Plant response rating, Sunflower: 0
sunflower; Rate 125 g/ha, 0 to 100 scale
  Plant response rating, Sunflower: 0
sunflower; [1]
  Plant response rating, Sunflower: 0
lambsquarters; Rate 140 g/ha
  Plant response rating, Lambsquarters: 10
lambsquarters; Rate 280 g/ha
  Plant response rating, Lambsquarters: 10
lambsquarters; Rate 560 g/ha
  Plant response rating, Lambsquarters: 10
lambsquarters; Rate 1120 g/ha
  Plant response rating, Lambsquarters: 40
chickweed; Rate 62 g/ha, 0 to 100 scale
  Plant response rating, Chickweed: 0
chickweed; Rate 125 g/ha, 0 to 100 scale
  Plant response rating, Chickweed: 0
chickweed; [1]
  Plant response rating, Chickweed: 0
Downy brome; [2]
  Plant response rating, Downy brome: 40
Downy brome; [3]
  Plant response rating, Downy brome: 60
Downy brome; Rate 250 g/ha, 0 to 100 scale
  Plant response rating, Downy brome: 20

## CC(C)N(C(=O)n1oc(=O)n(C2CCCCC2C(F)(F)F)c1=O)c1ccc(F)cc1 (stereo not drawn) [Compound 99]
barnyardgrass; Postemergence, Rate 1000 g/ha
  Plant response rating, Barnyardgrass: 7
barnyardgrass; Pre-emergence, Rate 2000 g/ha
  Plant response rating, Barnyardgrass: 9

## CC(C)N(C(=O)n1oc(=O)n(Cc2cccs2)c1=O)c1ccccc1 [Compound 103]
Fall panicum; Rate 140 g/ha
  Plant response rating Fall panicum: 0
Fall panicum; Rate 280 g/ha
  Plant response rating Fall panicum: 0
Fall panicum; Rate 560 g/ha
  Plant response rating Fall panicum: 0
Fall panicum; Rate 1120 g/ha
  Plant response rating Fall panicum: 30
lambsquarters; Rate 140 g/ha
  Plant response rating, Lambsquarters: 0
lambsquarters; Rate 280 g/ha
  Plant response rating, Lambsquarters: 5
lambsquarters; Rate 560 g/ha
  Plant response rating, Lambsquarters: 5
lambsquarters; Rate 1120 g/ha
  Plant response rating, Lambsquarters: 20

## CCn1c(=O)on(C(=O)N(c2ccc(Cl)cc2)C(C)C)c1=O [Compound 108]
Sugar beet; Rate 62 g/ha, 0 to 100 scale
  Plant response rating, Sugar beet: 5
Sugar beet; Rate 125 g/ha, 0 to 100 scale
  Plant response rating, Sugar beet: 10
Sugar beet; [1]
  Plant response rating, Sugar beet: 20
rape; [2]
  Plant response rating, Rape: 40
rape; [3]
  Plant response rating, Rape: 60
rape; Rate 250 g/ha, 0 to 100 scale
  Plant response rating, Rape: 50
Wild mustard; Rate 62 g/ha, 0 to 100 scale
  Plant response rating, Wild mustard: 5
Wild mustard; Rate 125 g/ha, 0 to 100 scale
  Plant response rating, Wild mustard: 10
Wild mustard; [1]
  Plant response rating, Wild mustard: 80
Common poppy; Rate 62 g/ha, 0 to 100 scale
  Plant response rating, Common poppy: 10
Common poppy; 0 to 100 scale
  Plant response rating, Comnion poppy: 0
Common poppy; [1]
  Plant response rating, Common poppy: 0
sunflower; Rate 62 g/ha, 0 to 100 scale
  Plant response rating, Sunflower: 20
sunflower; Rate 125 g/ha, 0 to 100 scale
  Plant response rating, Sunflower: 30
sunflower; [1]
  Plant response rating, Sunflower: 35
chickweed; Rate 62 g/ha, 0 to 100 scale
  Plant response rating, Chickweed: 10
chickweed; Rate 125 g/ha, 0 to 100 scale
  Plant response rating, Chickweed: 0
chickweed; [1]
  Plant response rating, Chickweed: 0
Downy brome; [2]
  Plant response rating, Downy brome: 30
Downy brome; [3]
  Plant response rating, Downy brome: 30
Downy brome; Rate 250 g/ha, 0 to 100 scale
  Plant response rating, Downy brome: 70

## CC(C)Cn1c(=O)on(C(=O)N(c2ccc(F)cc2)C(C)C)c1=O [Compound 169]
Pitted morningglory; [4]
  Plant response rating, P. morninglory: 0
Common ragweed; [4]
  Plant response rating, C. ragweed: 0
itchgrass; [4]
  Plant response rating, Itchgrass: 0
Tall mallow; [4]
  Tall Mallow plant response rating: 0

## CC(C)N(C(=O)n1oc(=O)n(C2CC2)c1=O)c1ccc(Cl)cc1 [Compound 241]
Pitted morningglory; [5]
  Plant response rating, P. morninglory: 0
Pitted morningglory; [6]
  Plant response rating, P. morninglory: 0
Pitted morningglory; [4]
  Plant response rating, P. morninglory: 0
Pitted morningglory; [7]
  Plant response rating, P. morninglory: 0
Pitted morningglory; Rate 250 g/ha
  Plant response rating, P. morninglory: 0
Common ragweed; [5]
  Plant response rating, C. ragweed: 0
Common ragweed; [6]
  Plant response rating, C. ragweed: 0
Common ragweed; [4]
  Plant response rating, C. ragweed: 20
Common ragweed; [7]
  Plant response rating, C. ragweed: 100
Common ragweed; Rate 250 g/ha
  Plant response rating, C. ragweed: 100
itchgrass; [5]
  Plant response rating, Itchgrass: 0
itchgrass; [6]
  Plant response rating, Itchgrass: 0
itchgrass; [4]
  Plant response rating, Itchgrass: 0
itchgrass; [7]
  Plant response rating, Itchgrass: 100
itchgrass; Rate 250 g/ha
  Plant response rating, Itchgrass: 100
Tall mallow; [5]
  Plant response rating, Tall Mallow: 0
Tall mallow; [6]
  Plant response rating, Tall Mallow: 0
Tall mallow; [4]
  Tall Mallow plant response rating: 0
Tall mallow; [7]
  Tall Mallow plant response rating: 10
Tall mallow; Rate 250 g/ha
  Plant response rating, Tall Mallow: 40
Green foxtail
  Plant response rating, Green foxtail: 100

## CC(C)N(C(=O)n1oc(=O)n(C2CCC2)c1=O)c1ccccc1 [Compound 348]
Pitted morningglory; [5]
  Plant response rating, P. morninglory: 0
Pitted morningglory; [6]
  Plant response rating, P. morninglory: 0
Pitted morningglory; [4]
  Plant response rating, P. morninglory: 0
Pitted morningglory; [7]
  Plant response rating, P. morninglory: 0
Pitted morningglory; Rate 250 g/ha
  Plant response rating, P. morninglory: 0
Common ragweed; [5]
  Plant response rating, C. ragweed: 0
Common ragweed; [6]
  Plant response rating, C. ragweed: 0
Common ragweed; [4]
  Plant response rating, C. ragweed: 0
Common ragweed; [7]
  Plant response rating, C. ragweed: 0
Common ragweed; Rate 250 g/ha
  Plant response rating, C. ragweed: 20
itchgrass; [5]
  Plant response rating, Itchgrass: 0
itchgrass; [6]
  Plant response rating, Itchgrass: 0
itchgrass; [4]
  Plant response rating, Itchgrass: 0
itchgrass; [7]
  Plant response rating, Itchgrass: 0
itchgrass; Rate 250 g/ha
  Plant response rating, Itchgrass: 100
Tall mallow; [5]
  Plant response rating, Tall Mallow: 0
Tall mallow; [6]
  Plant response rating, Tall Mallow: 0
Tall mallow; [4]
  Tall Mallow plant response rating: 0
Tall mallow; [7]
  Tall Mallow plant response rating: 20
Tall mallow; Rate 250 g/ha
  Plant response rating, Tall Mallow: 40
Green foxtail
  Plant response rating, Green foxtail: 100
